# Earlier results in patent EP0188214A2, “Novel growth hormone-releasing peptides and method of treating mammals therewith” (The Administrators of The Tulane University Educational Fund, priority 1985, dated 1986).
# Ends that are not written are not given here.
# Tested on: rat anterior pituitary
# Details: rat anterior pituitary in vitro and in vivo; literature
row,Substance,growth hormone(GH)-releasing activity
1,"hpGRF: growth hormone-releasing factors (GRF) of human pancreatic islet tumor origin (YADAIFTNSYRKVLGQLSARKLLQDIMSRQQGESNQERGARARL; ends and bridges not checked; UniProt P01286 32-75, looked up)",possess growh hormone(GH)-releasing activity
2,"hp GRF(1-29)-NH2: synthetic amidated fragment of the natural hp GRF (YADAIFTNSYRKVLGQLSARKLLQDIMSR-NH2; UniProt P01286 32-60, looked up, fragment)",full intrinsic biological activity
